According to the supplement of paper PMC10132981, “Formate overflow drives toxic folate trapping in MTHFD1 inhibited cancer cells” (Nature Metabolism, 2023):

Tests used:
[1] = system: SW620 MTHFD2 -/-; assay: EC50 for viability (resazurin, 96 h); details: RPMI+GlutaMAX (5% dFBS, 1% P/S)
[2] = system: SW620 MTHFD2-/-; assay: EC50 for viability (resazurin, 96 h); details: RPMI+GlutaMAX (5% dFBS, 1% P/S); metabolite supplement: Hypoxanthine + Formate
[3] = system: SW620 WT; assay: EC50 for viability (resazurin, 96 h); details: RPMI+GlutaMAX (5% dFBS, 1% P/S)
[4] = system: SW620; assay: EC50 for viability (resazurin, 96 h)
[5] = system: SW620; assay: cell viability relative to lowest-dose well (resazurin, 96 h); higher = more viable; details: RPMI + 10% FBS
Procedure, shortened: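 Viability values are expressed as percent of the lowest-dose well, using independent replicate cultures. HCT116 cells at 500 cells/well or SW620 cells at 1,000 cells/well were plated in 384-well plates in 50 µl RPMI containing 10% FBS and a metabolite supplement, then given compound dilution series dispensed from 10 mM DMSO stocks. After 96 h at 37 °C and 5% CO2, resazurin (10 µg ml^−1) conversion to resorufin was read by fluorescence at 595 nm after 5 h. Viability was read by resazurin-to-resorufin conversion and normalised to the lowest-dose vehicle well (=100%).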

Cc1c(N2CCN(C)[C@@H](C)C2)ccc2c3c(c(=O)oc12)CN(C(=O)c1ccc(NS(C)(=O)=O)c(OC(F)(F)F)c1)CC3
EC50 for viability [nM]
Details | metabolite supplement: Adenine | metabolite supplement: Adenosine | metabolite supplement: Guanosine | metabolite supplement: Hypoxanthine | metabolite supplement: Sodium Formate | metabolite supplement: Thymidine | metabolite supplement: Thymidine + Sodium Formate | metabolite supplement: Vehicle
[1] | – | – | – | – | > 10000 | 86.3 | 0.383 | 178
[3] | > 10000 | > 10000 | 2970 | > 10000 | – | 1070 | – | 889

Details | EC50 for viability [nM]
[2] | > 10000

Details | EC50 for viability [nM] | cell viability [%]
[4], HPLM (5% dFBS, 1% P/S), metabolite supplement: Vehicle | > 10000 | –
[4], RPMI+GlutaMAX (5% FBS, 1% P/S), metabolite supplement: Vehicle | > 10000 | –
[4], RPMI+GlutaMAX (5% dFBS, 1% P/S), metabolite supplement: 50 µM Hypoxanthine | > 10000 | –
[4], RPMI+GlutaMAX (5% dFBS, 1% P/S), metabolite supplement: Vehicle | 553 | –
[4], RPMI+GlutaMAX (10% FBS, 1% P/S), metabolite supplement: Hypoxanthine | 7050 | –
[4], RPMI+GlutaMAX (10% FBS, 1% P/S), metabolite supplement: Sodium Formate | 6170 | –
[4], RPMI+GlutaMAX (10% FBS, 1% P/S), metabolite supplement: Thymidine | 447 | –
[4], RPMI+GlutaMAX (10% FBS, 1% P/S), metabolite supplement: Thymidine + Hypoxanthine | > 10000 | –
[4], RPMI+GlutaMAX (10% FBS, 1% P/S), metabolite supplement: Thymidine + Sodium Formate | > 10000 | –
[5], 0.001 µM, metabolite supplement: 1mM sodium formate | – | 100
[5], 0.001 µM, metabolite supplement: 50uM thymidine | – | 99.1
[5], 0.001 µM, metabolite supplement: 50uM thymidine + 1mM sodium formate | – | 99.4
[5], 0.001 µM, metabolite supplement: 50uM thymidine + 250uM hypoxanthine | – | 100
[5], 0.001 µM, metabolite supplement: 250uM hypoxanthine | – | 100
[5], 0.001 µM, metabolite supplement: vehicle | – | 97
[5], 0.00301 µM, metabolite supplement: 1mM sodium formate | – | 98.27
[5], 0.00301 µM, metabolite supplement: 50uM thymidine | – | 97.2
[5], 0.00301 µM, metabolite supplement: 50uM thymidine + 1mM sodium formate | – | 102
[5], 0.00301 µM, metabolite supplement: 50uM thymidine + 250uM hypoxanthine | – | 102.3
[5], 0.00301 µM, metabolite supplement: 250uM hypoxanthine | – | 96.6
[5], 0.00301 µM, metabolite supplement: vehicle | – | 97.3
[5], 0.00903 µM, metabolite supplement: 1mM sodium formate | – | 97.8
[5], 0.00903 µM, metabolite supplement: 50uM thymidine | – | 96
[5], 0.00903 µM, metabolite supplement: 50uM thymidine + 1mM sodium formate | – | 101
[5], 0.00903 µM, metabolite supplement: 50uM thymidine + 250uM hypoxanthine | – | 102
[5], 0.00903 µM, metabolite supplement: 250uM hypoxanthine | – | 98.9
[5], 0.00903 µM, metabolite supplement: vehicle | – | 96.4
[5], 0.0271 µM, metabolite supplement: 1mM sodium formate | – | 100
[5], 0.0271 µM, metabolite supplement: 50uM thymidine | – | 99.6
[5], 0.0271 µM, metabolite supplement: 50uM thymidine + 1mM sodium formate | – | 102
[5], 0.0271 µM, metabolite supplement: 50uM thymidine + 250uM hypoxanthine | – | 104
[5], 0.0271 µM, metabolite supplement: 250uM hypoxanthine | – | 99.5
[5], 0.0271 µM, metabolite supplement: vehicle | – | 97.6
[5], 0.0816 µM, metabolite supplement: 1mM sodium formate | – | 101
[5], 0.0816 µM, metabolite supplement: 50uM thymidine | – | 97.1
[5], 0.0816 µM, metabolite supplement: 50uM thymidine + 1mM sodium formate | – | 105
[5], 0.0816 µM, metabolite supplement: 50uM thymidine + 250uM hypoxanthine | – | 107
[5], 0.0816 µM, metabolite supplement: 250uM hypoxanthine | – | 97.4
[5], 0.0816 µM, metabolite supplement: vehicle | – | 95.4
[5], 0.245 µM, metabolite supplement: 1mM sodium formate | – | 97.7
[5], 0.245 µM, metabolite supplement: 50uM thymidine | – | 85.4
[5], 0.245 µM, metabolite supplement: 50uM thymidine + 1mM sodium formate | – | 104
[5], 0.245 µM, metabolite supplement: 50uM thymidine + 250uM hypoxanthine | – | 107.8
[5], 0.245 µM, metabolite supplement: 250uM hypoxanthine | – | 99.9
[5], 0.245 µM, metabolite supplement: vehicle | – | 86.4
[5], 0.737 µM, metabolite supplement: 1mM sodium formate | – | 95.9
[5], 0.737 µM, metabolite supplement: 50uM thymidine | – | 69.5
[5], 0.737 µM, metabolite supplement: 50uM thymidine + 1mM sodium formate | – | 100
[5], 0.737 µM, metabolite supplement: 50uM thymidine + 250uM hypoxanthine | – | 108
[5], 0.737 µM, metabolite supplement: 250uM hypoxanthine | – | 97
[5], 0.737 µM, metabolite supplement: vehicle | – | 71.13
[5], 2.21 µM, metabolite supplement: 1mM sodium formate | – | 89
[5], 2.21 µM, metabolite supplement: 50uM thymidine | – | 61.5
[5], 2.21 µM, metabolite supplement: 50uM thymidine + 1mM sodium formate | – | 102
[5], 2.21 µM, metabolite supplement: 50uM thymidine + 250uM hypoxanthine | – | 106
[5], 2.21 µM, metabolite supplement: 250uM hypoxanthine | – | 84.7
[5], 2.21 µM, metabolite supplement: vehicle | – | 63.2
[5], 6.65 µM, metabolite supplement: 1mM sodium formate | – | 62.4
[5], 6.65 µM, metabolite supplement: 50uM thymidine | – | 58.1
[5], 6.65 µM, metabolite supplement: 50uM thymidine + 1mM sodium formate | – | 101
[5], 6.65 µM, metabolite supplement: 50uM thymidine + 250uM hypoxanthine | – | 102
[5], 6.65 µM, metabolite supplement: 250uM hypoxanthine | – | 66.4
[5], 6.65 µM, metabolite supplement: vehicle | – | 60.8
[5], 20 µM, metabolite supplement: 1mM sodium formate | – | 39.2
[5], 20 µM, metabolite supplement: 50uM thymidine | – | 54.3
[5], 20 µM, metabolite supplement: 50uM thymidine + 1mM sodium formate | – | 89.9
[5], 20 µM, metabolite supplement: 50uM thymidine + 250uM hypoxanthine | – | 88.6
[5], 20 µM, metabolite supplement: 250uM hypoxanthine | – | 44.2
[5], 20 µM, metabolite supplement: vehicle | – | 55
